Source: patent US20250034216A1, “STEREOSELECTIVE COVALENT LIGANDS FOR ONCOGENIC AND IMMUNOLOGICAL PROTEINS” (The Scripps Research Institute, priority 2021, published 2025)

Columns and labels:
Assay in all cases: IA-DTB cysteine engagement
Format in all cases: binding
Settings in all cases: 22Rv1 cells, 20 μM probe, 1 h, relative to DMSO
[1] = target: T1, NELFCD_C169 (Homo sapiens, UniProt Q8IXH7)
T1 construct: endogenous in cells; host or cells: 22Rv1
Outline: (§1)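 Read-out is TMT-based cysteine engagement, expressed as each reporter ion intensity divided by the average of the DMSO channels. Before that, probe-treated cell lysates were capped with IA-DTB, digested, enriched on streptavidin and TMT-tagged. PSMs with DMSO summed intensity <10,000 or DMSO CV >0.5 were excluded.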

[2] = target: T2, UNC13A_C999 (Homo sapiens, UniProt Q9UPW8)
T2 construct: endogenous in cells; host or cells: 22Rv1
Outline: as §1

[3] = target: T3, CDKN2AIP_C516 (Homo sapiens, UniProt Q9NXV6)
T3 construct: endogenous in cells; host or cells: 22Rv1
T3 sequence (Q9NXV6 1-580): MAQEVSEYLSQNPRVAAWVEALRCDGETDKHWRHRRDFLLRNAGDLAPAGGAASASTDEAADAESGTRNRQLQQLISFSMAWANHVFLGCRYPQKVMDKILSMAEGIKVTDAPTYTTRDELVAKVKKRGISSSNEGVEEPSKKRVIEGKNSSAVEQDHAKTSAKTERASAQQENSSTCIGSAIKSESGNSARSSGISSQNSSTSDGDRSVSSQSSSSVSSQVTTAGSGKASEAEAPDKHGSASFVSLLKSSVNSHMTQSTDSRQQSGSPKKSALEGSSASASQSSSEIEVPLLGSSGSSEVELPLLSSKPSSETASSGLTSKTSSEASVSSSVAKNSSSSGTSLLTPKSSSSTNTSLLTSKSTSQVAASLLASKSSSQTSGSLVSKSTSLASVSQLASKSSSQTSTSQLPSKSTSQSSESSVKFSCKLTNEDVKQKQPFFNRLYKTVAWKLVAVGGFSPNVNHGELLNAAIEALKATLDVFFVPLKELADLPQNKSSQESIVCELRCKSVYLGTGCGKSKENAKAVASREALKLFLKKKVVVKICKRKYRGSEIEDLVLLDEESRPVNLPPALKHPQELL
Outline: as §1

[4] = target: T4, HNRNPLL_C235 (Homo sapiens, UniProt Q8WVV9)
T4 construct: endogenous in cells; host or cells: 22Rv1
T4 sequence (Q8WVV9 1-542): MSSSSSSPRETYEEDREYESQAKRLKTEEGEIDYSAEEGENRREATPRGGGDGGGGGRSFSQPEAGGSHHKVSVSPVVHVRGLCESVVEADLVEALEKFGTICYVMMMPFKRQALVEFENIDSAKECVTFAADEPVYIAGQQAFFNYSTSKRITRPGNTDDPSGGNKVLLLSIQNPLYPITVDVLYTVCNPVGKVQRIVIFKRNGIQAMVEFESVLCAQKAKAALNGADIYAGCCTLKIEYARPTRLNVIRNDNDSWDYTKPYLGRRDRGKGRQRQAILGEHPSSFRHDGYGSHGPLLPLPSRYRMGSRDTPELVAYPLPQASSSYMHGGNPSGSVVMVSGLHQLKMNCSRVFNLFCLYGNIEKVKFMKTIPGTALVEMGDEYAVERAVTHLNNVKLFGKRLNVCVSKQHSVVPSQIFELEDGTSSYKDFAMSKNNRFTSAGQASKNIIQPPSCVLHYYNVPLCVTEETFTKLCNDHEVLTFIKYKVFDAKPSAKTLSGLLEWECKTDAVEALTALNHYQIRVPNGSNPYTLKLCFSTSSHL
Outline: as §1

T1 sequence (Q8IXH7 whole entry): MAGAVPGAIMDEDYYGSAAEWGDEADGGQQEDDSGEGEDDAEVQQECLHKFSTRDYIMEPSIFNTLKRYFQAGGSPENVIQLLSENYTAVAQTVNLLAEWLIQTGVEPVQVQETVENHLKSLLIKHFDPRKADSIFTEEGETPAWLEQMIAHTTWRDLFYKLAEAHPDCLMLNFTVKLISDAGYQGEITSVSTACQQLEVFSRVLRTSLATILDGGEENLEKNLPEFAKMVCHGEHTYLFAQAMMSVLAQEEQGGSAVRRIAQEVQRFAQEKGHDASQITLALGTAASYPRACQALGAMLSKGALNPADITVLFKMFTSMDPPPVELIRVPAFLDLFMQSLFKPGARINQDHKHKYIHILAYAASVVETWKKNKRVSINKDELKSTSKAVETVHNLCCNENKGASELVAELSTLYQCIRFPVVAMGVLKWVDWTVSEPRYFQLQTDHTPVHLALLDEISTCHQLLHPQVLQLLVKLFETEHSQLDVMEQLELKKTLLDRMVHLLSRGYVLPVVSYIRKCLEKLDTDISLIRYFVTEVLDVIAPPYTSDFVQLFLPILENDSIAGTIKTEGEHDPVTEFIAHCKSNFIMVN

% engagement NELFCD_C169 [1] [%]	% engagement UNC13A_C999 [2] [%]	% engagement CDKN2AIP_C516 [3] [%]	% engagement HNRNPLL_C235 [4] [%]	SMILES
51	54.5	66.5	15	C=CC(=O)N1C[C@@H](c2ccc(Br)cc2)[C@H]1C(=O)Nc1cccc2cccnc12 [MY-1A, (2S,3R)-1-acryloyl-3-(4-bromophenyl)-N-(quinolin-8-yl)azetidine-2-carboxamide]
41.75	100	24	34	C=CC(=O)N1C[C@H](c2ccc(Br)cc2)[C@@H]1C(=O)Nc1cccc2cccnc12 [MY-1B, (2R,3S)-1-acryloyl-3-(4-bromophenyl)-N-(quinolin-8-yl)azetidine-2-carboxamide]
69.5	23.5	18.75	75	C=CC(=O)N1C[C@H](c2ccc(Br)cc2)[C@H]1C(=O)Nc1cccc2cccnc12 [MY-3B, (2S,3S)-1-acryloyl-3-(4-bromophenyl)-N-(quinolin-8-yl)azetidine-2-carboxamide]
40.75	100	12.75	−7.5	C=CC(=O)N1C[C@H](c2ccc(Br)cc2)[C@H]1C(=O)Nc1cccc2cccnc12 [MY-3A, (2S,3S)-1-acryloyl-3-(4-bromophenyl)-N-(quinolin-8-yl)azetidine-2-carboxamide]
